Data reported in ChEMBL document CHEMBL1150964, “Munchiwarin, a prenylated chalcone from crotalaria trifoliastrum” (J Nat Prod, 1998).
Values after ≈ are worked out from the molar mass of the structure shown. Active and inactive are the calls of the source. The rule behind the calls is not given here.

Columns and labels:
[1] = Cytotoxicity against human BC1 cells; assay type: functional, cell-based
[2] = target: Human immunodeficiency virus type 1 reverse transcriptase (Human immunodeficiency virus 1) (UniProt Q72547); assay: Inhibition of HIV1 reverse transcriptase
KB [3] = assay: Cytotoxicity against drug-resistant human KB cells in absence of vinblastine; assay type: functional, cell-based
Col2 = assay: Cytotoxicity against human Col2 cells; assay type: functional, cell-based
KB [4] = assay: Cytotoxicity against human KB cells; assay type: functional, cell-based
KB [5] = assay: Cytotoxicity against drug-resistant human KB cells in presence of vinblastine; assay type: functional, cell-based

## CC(C)=CCC1=C/C(=C(O)\C=C\c2ccc(O)cc2)C(=O)C(CC=C(C)C)(CC=C(C)C)C1=O [MUNCHIWARIN]
[1]
  IC50: 9 µg/mL (≈ 19.5 µM)
[2]
  Activity: inactive
KB [3]
  IC50: 14 µg/mL (≈ 30.4 µM)
Col2
  IC50: 9 µg/mL (≈ 19.5 µM)
KB [4]
  IC50: 11 µg/mL (≈ 23.9 µM)
KB [5]
  IC50: 13 µg/mL
